ChEMBL document CHEMBL3407408, “Design and synthesis of a new class of cryptophycins based tubulin inhibitors” (Eur J Med Chem, 2015)
Active and inactive are the calls of the source. No cut-off for these calls is given here.

Legend:
[1] = Cytotoxicity against human PC3 cells after 48 hrs by MTT assay; assay type: functional, cell-based; details: PC-3, 48 h
[2] = Cytotoxicity against human FR2 cells after 48 hrs by MTT assay; assay type: cell-based; details: FR2, 48 h
HeLa = assay: cells; details: Homo sapiens, 48 h
Description: Cytotoxicity against human HeLa cells after 48 hrs by MTT assay

A549 [3] = assay: cells; details: Homo sapiens, A549, 48 h
Description: Cytotoxicity against human A549 cells after 48 hrs by MTT assay

A549 [4] = assay: Cell cycle arrest in human A549 cells assessed as accumulation at G2/M phase at 1 uM by propidium iodide staining-based flow cytometric analysis (reference value: 5%); assay type: functional
A549 [5] = assay: Induction of apoptosis in human A549 cells assessed as cellular blebs at 10 to 30 uM after 24 hrs by phase contrast microscopic analysis; assay type: functional, cell-based
A549 [6] = assay: Induction of apoptosis in human A549 cells assessed as […] at 10 to 30 uM after 24 hrs by phase contrast microscopic analysis; assay type: functional, cell-based
A549 [7] = assay: Induction of apoptosis in human A549 cells assessed as shrinkage of cell size at 10 to 30 uM after 24 hrs by phase contrast microscopic analysis; assay type: functional, cell-based
A549 [8] = assay: Induction of apoptosis in human A549 cells assessed as formation of multiple apoptotic bodies at 10 to 30 uM after 24 hrs by Hoechst 33258 staining-based inverted fluorescence microscopic analysis; assay type: functional, cell-based
A549 [9] = assay: Cell cycle arrest in human A549 cells assessed as increase in hypo diploid sub-G0 DNA fraction after 24 hrs by propidium iodide staining-based flow cytometric analysis; assay type: functional
A549 [10] = assay: Cell cycle arrest in human A549 cells assessed as accumulation at sub-G0 phase at 10 uM after 24 hrs by propidium iodide staining-based flow cytometric analysis (reference value: 5%); assay type: functional
A549 [11] = assay: Cell cycle arrest in human A549 cells assessed as accumulation at G1 phase at 10 uM after 24 hrs by propidium iodide staining-based flow cytometric analysis (reference value: 69%); assay type: functional
A549 [12] = assay: Cell cycle arrest in human A549 cells assessed as accumulation at S phase at 10 uM after 24 hrs by propidium iodide staining-based flow cytometric analysis (reference value: 26%); assay type: functional
A549 [13] = assay: Cell cycle arrest in human A549 cells assessed as accumulation at G2/M phase at 10 uM after 24 hrs by propidium iodide staining-based flow cytometric analysis (reference value: 5%); assay type: functional
A549 [14] = assay: Cell cycle arrest in human A549 cells assessed as accumulation at sub-G0 phase at 30 uM after 24 hrs by propidium iodide staining-based flow cytometric analysis (reference value: 5%); assay type: functional
A549 [15] = assay: Cell cycle arrest in human A549 cells assessed as accumulation at G1 phase at 30 uM after 24 hrs by propidium iodide staining-based flow cytometric analysis (reference value: 69%); assay type: functional
A549 [16] = assay: Cell cycle arrest in human A549 cells assessed as accumulation at S phase at 30 uM after 24 hrs by propidium iodide staining-based flow cytometric analysis (reference value: 26%); assay type: functional
A549 [17] = assay: Cell cycle arrest in human A549 cells assessed as accumulation at G2/M phase at 30 uM after 24 hrs by propidium iodide staining-based flow cytometric analysis (reference value: 5%); assay type: functional
A549 [18] = assay: Downregulation of alpha-tubulin protein expression in human A549 cells at 10 to 30 uM after 24 hrs by Western blot analysis; assay type: functional, cell-based
A549 [19] = assay: Downregulation of beta-tubulin protein expression in human A549 cells at 10 to 30 uM after 24 hrs by Western blot analysis; assay type: functional, cell-based

SMILES	IC50 (HeLa)	IC50 (A549 [3])	IC50 [1]	IC50 [2]	further results
COc1ccc(C[C@@H]2NC(=O)/C=C/C[C@@H](c3ccc(Cl)cc3Cl)OC(=O)[C@H](CC(C)C)OC(=O)CCNC2=O)cc1	33 µM	45 µM	32 µM	> 100 µM	–
COc1ccc(C[C@@H]2NC(=O)/C=C/C[C@@H](c3ccc(Br)cc3)OC(=O)[C@H](CC(C)C)OC(=O)CCNC2=O)cc1	60 µM	56 µM	68 µM	> 100 µM	–
COc1ccc(C[C@H]2NC(=O)/C=C/C[C@@H](c3ccc(Cl)cc3Cl)OC(=O)[C@H](CC(C)C)OC(=O)CCNC2=O)cc1	90 µM	100 µM	100 µM	> 100 µM	–
COc1ccc(C[C@@H]2NC(=O)/C=C/C[C@@H](c3c(F)c(F)c(F)c(F)c3F)OC(=O)[C@H](CC(C)C)OC(=O)CCNC2=O)cc1	100 µM	> 100 µM	100 µM	79 µM	–
COc1ccc(C[C@H]2NC(=O)/C=C/C[C@@H](c3ccc(Br)cc3)OC(=O)[C@H](CC(C)C)OC(=O)CCNC2=O)cc1	55 µM	60 µM	60 µM	87 µM	–
COc1ccc(C[C@H]2NC(=O)/C=C/C[C@@H](c3c(F)c(F)c(F)c(F)c3F)OC(=O)[C@H](CC(C)C)OC(=O)CCNC2=O)cc1	78 µM	30 µM	70 µM	> 100 µM	–
COc1ccc(C[C@H]2NC(=O)/C=C/C[C@@H](c3ccccc3[N+](=O)[O-])OC(=O)[C@H](CC(C)C)OC(=O)CCNC2=O)cc1	29 µM	15 µM	67 µM	> 100 µM	–
CC(=O)O[C@H]1C(=O)[C@@]2(C)[C@H]([C@H](OC(=O)c3ccccc3)[C@]3(O)C[C@H](OC(=O)[C@H](O)[C@@H](NC(=O)c4ccccc4)c4ccccc4)C(C)=C1C3(C)C)[C@]1(OC(C)=O)CO[C@@H]1C[C@@H]2O [PACLITAXEL]	–	0.025 µM	0.012 µM	16 µM	Activity (A549 [4]): 45%
COc1ccc(C[C@@H]2NC(=O)/C=C/C[C@@H](c3ccccc3[N+](=O)[O-])OC(=O)[C@H](CC(C)C)OC(=O)CCNC2=O)cc1	47 µM	13 µM	100 µM	90 µM	–

More lines, main results first:

IC50 (HeLa)	IC50 (A549 [3])	SMILES	IC50 [1]	IC50 [2]	further results
> 100 µM	> 100 µM	COc1ccc(C[C@H]2NC(=O)/C=C/C[C@@H](c3cccc([N+](=O)[O-])c3)OC(=O)[C@H](CC(C)C)OC(=O)CCNC2=O)cc1	> 100 µM	> 100 µM	–
35 µM	90 µM	COc1ccc(C[C@@H]2NC(=O)/C=C/C[C@@H](c3cccc([N+](=O)[O-])c3)OC(=O)[C@H](CC(C)C)OC(=O)CCNC2=O)cc1	100 µM	93 µM	–
28 µM	10 µM	COc1ccc(C[C@H]2NC(=O)/C=C/C[C@@H](c3ccc([N+](=O)[O-])cc3)OC(=O)[C@H](CC(C)C)OC(=O)CCNC2=O)cc1	15 µM	97 µM	Activity (A549 [5]): Active; Activity (A549 [6]): Active; Activity (A549 [7]): Active; Activity (A549 [8]): Active; Activity (A549 [9]): Dose-dependent effect; Activity (A549 [10]): 11%; Activity (A549 [11]): 59%; Activity (A549 [12]): 35%; Activity (A549 [13]): 6%; Activity (A549 [14]): 26%; Activity (A549 [15]): 62%; Activity (A549 [16]): 30%; Activity (A549 [17]): 8%; Activity (A549 [18]): Active; Activity (A549 [19]): Active
40 µM	11 µM	COc1ccc(C[C@@H]2NC(=O)/C=C/C[C@@H](c3ccc([N+](=O)[O-])cc3)OC(=O)[C@H](CC(C)C)OC(=O)CCNC2=O)cc1	70 µM	78 µM	Activity (A549 [5]): Active; Activity (A549 [6]): Active; Activity (A549 [7]): Active; Activity (A549 [8]): Active; Activity (A549 [9]): Dose-dependent effect; Activity (A549 [10]): 19%; Activity (A549 [11]): 65%; Activity (A549 [12]): 25%; Activity (A549 [13]): 10%; Activity (A549 [14]): 49%; Activity (A549 [15]): 80%; Activity (A549 [16]): 1%; Activity (A549 [17]): 19%; Activity (A549 [18]): Active; Activity (A549 [19]): Active
